The nature of this data set: gradient 5% acetonitrile 3 min, to 50% in 2 min, to 85% in 15 min, held 3 min, 100 µL/min. The following applies: column: Zorbax Extend-C18 2.1 x 50 mm; eluents: water / acetonitrile, 0.1% formic acid. In a few lines:
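Pure standards were run in mixtures of ~100 molecules by HPLC coupled to a quadrupole time-of-flight mass spectrometer. The column was a Zorbax Extend-C18 (2.1 × 50 mm, 1.8 μm) at 100 μL/min, with water and acetonitrile each containing 0.1% formic acid, in positive and negative ionization mode. Dead and dwell volumes were 40 μL and 900 μL. Retention time was taken from computationally picked adduct peaks, each manually inspected, with data collected over 3 months.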
As to `Cc1ccc2[nH]cc(CCNC(=O)C3CCN(c4ccc(Cl)cc4)C3=O)c2c1` (configuration not stated), the RP-LC retention time was found to be 987 s.

In turn, `CCOc1nc2ccccc2nc1N1CCCC(C(=O)Nc2ccc(NC(C)=O)cc2)C1` (configuration not stated) returned an RP-LC retention time of 908 s.

`O=C(C1CCN(c2nc3ccc(-c4cccc(F)c4)nc3s2)CC1)N1CCOCC1` came in with an RP-LC retention time of 892 s.

`O=S(=O)(Nc1cccc(-c2cn3cccnc3n2)c1)c1ccc(Br)cc1` came in with an RP-LC retention time of 769 s.

`CCn1cc(-c2nc(-c3ccc(OCC(C)C)cc3)no2)c(=O)c2cc(F)c(N3CCOCC3)cc21` returned an RP-LC retention time of 917 s.

The molecule `O=C1N(CCNS(=O)(=O)c2cnc[nH]2)C(c2ccccc2)C12CCCCC2` (configuration not stated) yielded an RP-LC retention time of 740 s.

Molecule `COCc1cc(=O)n2c(n1)N(Cc1cccc(C#N)c1)CC2` gave an RP-LC retention time of 669 s.

For `CCOc1ccccc1-c1noc(-c2nnn3c2COC(c2ccc(OC)cc2)C3)n1` (configuration not stated), the RP-LC retention time was determined as 1080 s.

For `NC(=O)C1CCN(C(=O)c2snc(-c3ccccn3)c2N)CC1`, the RP-LC retention time was 645 s.

The molecule `COCCCNC(=O)[C@@H]1[C@H](c2cc(OC)c(OC)c(OC)c2)c2cc3c(cc2[C@H](O)[C@H]1CO)OCO3` gave an RP-LC retention time of 630 s.

`Cc1ccc(NC(=O)C2CCN(S(=O)(=O)c3cn(C(C)C)cn3)CC2)cc1N(C)C` yielded an RP-LC retention time of 597 s.

With `CCOc1cccc(-c2noc(CCn3nc(-c4ccc(F)cc4)ccc3=O)n2)c1`, the RP-LC retention time amounted to 1060 s.

`COc1ccccc1-c1nc2sc3c(c2c(=O)[nH]1)CCCC3` registered an RP-LC retention time of 1150 s.

Turning to `O=C(c1ccc(F)c(F)c1)N1CCC(n2c(-c3ccoc3)nc3cccnc32)C1` (configuration not stated), the RP-LC retention time worked out at 745 s.

Take `CCOC(=O)c1c(C)c(-c2ccccc2)n(CC(=O)N2CCN(c3ccccn3)CC2)c1C`: the RP-LC retention time came to 729 s.

On to `Cn1cc(CCN2CCC(C(=O)NCc3ccc(Cl)cc3)CC2)c2cccnc21`, for which the RP-LC retention time was 617 s.

`Cc1ccc(-c2noc(-c3cccc(S(=O)(=O)Nc4ccc(C#N)cc4)c3)n2)cc1`: the RP-LC retention time was 1140 s.

The molecule `CN(C)C(=O)Cn1cnc2ccccc2c1=O` had an RP-LC retention time of 583 s.

For `Cc1ccc(NC(=O)Cn2nc3c(Oc4ccc(F)cc4)nccn3c2=O)cc1`, the RP-LC retention time is 859 s.

Molecule `CCc1ccc(N2C(=O)C3N=NN(Cc4nc(-c5ccccc5Cl)no4)C3C2=O)cc1` (configuration not stated) showed an RP-LC retention time of 1060 s.

The molecule `CCc1ccccc1NC(=O)Cn1nc(N2CCOCC2)c2ccccc2c1=O` had an RP-LC retention time of 744 s.

`CCN(CC)C(=O)c1ccc2c(c1)N(CC(=O)Nc1ccc(C(C)=O)cc1)C(=O)CO2`: the RP-LC retention time is 700 s.

`CCOC(=O)c1ccc(Nc2c(C(=O)N3CCC(C)CC3)cnc3nc(C)ccc23)cc1`: the RP-LC retention time worked out at 675 s.

Take `COc1cccc(-c2ccc3nc(N4CCC(C(=O)N5CCOCC5)CC4)sc3n2)c1`: the RP-LC retention time worked out at 843 s.

For the molecule `O=C(c1ccc(F)c(F)c1)N1CCCC(c2ccnc(-c3cccc(F)c3)n2)C1` (configuration not stated), the RP-LC retention time worked out at 1120 s.

Molecule `Cc1ccc(C)n1-c1nnc(N2CCC(C(=O)N3CCN(c4ccccn4)CC3)CC2)s1` returned an RP-LC retention time of 634 s.

`Cc1nc2cc(N3CC(C(=O)NCc4ccccc4Cl)CC3=O)ccc2o1` (configuration not stated) had an RP-LC retention time of 734 s.

The molecule `O=C(NCc1cccc(F)c1)c1ccc(-c2cccs2)nc1` came in with an RP-LC retention time of 894 s.

On to `CC1CCN(Cc2nnc(-c3ccccc3)o2)CC1`, for which the RP-LC retention time worked out at 601 s.

In the case of `Cc1ccc2oc(C(=O)N3CCC(CCN4CCCCC4)CC3)cc(=O)c2c1`, the RP-LC retention time came out at 611 s.

In turn, `CC(=O)Nc1ccc(NC(=O)c2cccc(N3C(=O)NC4CC3(C)Oc3ccc(Cl)cc34)c2)cc1` (configuration not stated) registered an RP-LC retention time of 754 s.

`COc1ccc(NC(=O)N2CCC(c3nc(C(=O)N(C)C)c(C)o3)CC2)cc1OC` showed an RP-LC retention time of 635 s.

The molecule `CC(C)c1ccc(C(=O)NCC(=O)Nc2nc3ccccc3[nH]2)cc1` showed an RP-LC retention time of 688 s.

`CCN1C(=O)c2ccccc2S(=O)c2ccc(C(=O)N3CCN(c4ccccn4)CC3)cc21` (configuration not stated): the RP-LC retention time amounted to 595 s.

The molecule `Cc1ccc(C)c(NC(=O)Cn2c(C)cc(-c3nnc(C)o3)c2C)c1` yielded an RP-LC retention time of 796 s.

Molecule `Cc1ccccc1N1C(=O)CN(S(=O)(=O)c2ccccc2)CC1(C)C(=O)NC1CCCC1` (configuration not stated) registered an RP-LC retention time of 920 s.

With `CCCN1CCN(C(=O)CCC(=O)N2CCc3c(c(C(=O)N4CCCC4)nn3C)C2)CC1`, the RP-LC retention time was 577 s.

The molecule `CCOc1ccc(C2Cn3nnc(-c4nc(C)no4)c3CO2)cc1` (configuration not stated) showed an RP-LC retention time of 917 s.

`CCOC(=O)c1[nH]c2ccc(OC)cc2c1NC(=O)CN(C)C` yielded an RP-LC retention time of 575 s.

The molecule `CC(C)CN1CCN(S(=O)(=O)c2cc(-c3nnc(C4CCCC4)o3)co2)CC1` returned an RP-LC retention time of 678 s.

In turn, `COc1ccc(NC(=O)N2[C@H]3CC[C@@H]2c2cnc(-c4ccc(F)cc4)nc2C3)c(OC)c1` registered an RP-LC retention time of 961 s.

Molecule `Cc1[nH]nc(-c2c(C)sc(C)c2S(=O)(=O)NCCC2=CCCCC2)c1C` came in with an RP-LC retention time of 1210 s.

Molecule `C[C@H](NC(=O)c1cc2ccccc2[nH]1)C(=O)NCCc1c[nH]c2ccccc12` yielded an RP-LC retention time of 1150 s.

In the case of `COc1ccc2c(c1)c(CN1C[C@@H](CO)[C@H](c3nc(C)no3)C1)cn2C`, the RP-LC retention time stood at 555 s.

The molecule `Cc1ccc(-n2ccnc(NC(=O)Nc3ccc(F)c(Cl)c3)c2=O)cc1C` displayed an RP-LC retention time of 1160 s.

Molecule `Cc1ccc(-c2nnc(Cc3nc(-c4cccc(Cl)c4)no3)o2)cc1C` displayed an RP-LC retention time of 1230 s.

In turn, `COc1cc(NC(=O)C2=Cc3cc(Br)ccc3OC2)cc(OC)c1OC` displayed an RP-LC retention time of 997 s.

`CCCNC(=O)N1CCC(c2noc(-c3cccnc3)n2)C1` (configuration not stated) came in with an RP-LC retention time of 642 s.

For the molecule `O=C(N[C@H]1C[C@@H]2C[C@H]1N(C(=O)Nc1ccc3c(c1)CCC3)C2)c1ccccc1`, the RP-LC retention time amounted to 950 s.

As for `Cc1coc(C)c1C(=O)Nc1ncc(Cc2ccc(Cl)cc2)s1`, the RP-LC retention time came out at 1020 s.

The molecule `COc1ccc(OC)c(NS(=O)(=O)c2c(C)nn(-c3ccc(-c4ccc(C)cc4)nn3)c2C)c1` registered an RP-LC retention time of 1110 s.

The molecule `CC1(C)CC2CC(C)(CN2c2nc(-c3ccccc3)nc3ccccc23)C1` (configuration not stated) gave an RP-LC retention time of 948 s.

Take `CCc1nnc(NS(=O)(=O)c2ccc(NC(=O)c3ccc(Cl)s3)cc2)s1`: the RP-LC retention time came out at 821 s.

On to `Cc1cc(C(=O)N2CCC3(CC2)NCc2ccccc2-n2ccnc23)nn1C`, for which the RP-LC retention time amounted to 576 s.

On to `CCc1nnc(-c2ccc3ccn(CC(=O)N4CCN(c5ccccc5F)CC4)c3c2)o1`, for which the RP-LC retention time worked out at 892 s.

`Cc1nc(-c2ccccc2Cl)sc1C(=O)N[C@@H](Cc1c[nH]c2ccccc12)C(=O)O` yielded an RP-LC retention time of 898 s.

Consider `CCOC(=O)c1c(CN2CCOCC2)n(C)c2cc(-c3cccnc3)c(O)cc12`, for which the RP-LC retention time is 535 s.
